Source: patent US6511811B1, “Protein kinase C antagonist related to insulin receptor” (The Regents of the University of California, priority 1995, dated 2003)
Ends that are not written are not given here.

How the values were obtained:
[1] = tested on: insulin receptor kinase activity; settings: incubation of cells with the inhibitor; Mosthaf et al.; cited from earlier work
[2] = tested on: insulin receptor; test: 32P labelling and two-dimensional tryptic phosphopeptide analysis of insulin receptor; type: cell-based, human; settings: stimulation of 32P-labelled HIRcB cells; FIG. 8
Description: HIRcB cells were serum-starved for 16 h and then incubated in phosphate-free DMEM containing 2 mCi/ml ^32P-orthophosphate for 3 h. The cells were then stimulated with high glucose (25 mM) or insulin as indicated. The cells were lysed, and the insulin receptor was immunoprecipitated using […] antibody 83-14 as described. The washed immunoprecipitates were analyzed by SDS electrophoresis. The labeled β-subunit was visualized by autoradiography, excised from the gels and recovered by electroelution.
Polyacrylamide-gel pieces containing ^32P-labeled IR and IRS-1 following in vitro phosphorylation were electroeluted in 20 mM Tris-HCl, pH 8.0, 2 mM EDTA, 0.1% SDS, and 0.1% 2-mercaptoethanol for 4 h. Eluted protein was precipitated with four volumes of acetone at −80° C. for 60 min followed by centrifugation at room temperature for 10 min at 10,000 g. The pellet was dried and digested with 10 μg of TPCK-treated trypsin (Worthington Diagnostic Systems, Freehold, N.J.) in 100 μl of 100 mM N-ethylmorpholine acetate (NMA), pH 8.2, for 24 h at 37° C. A further 10 μg of TPCK-treated trypsin was added and digestion continued for 12 h. The peptides were lyophilized, resuspended with water, and re-lyophilized at least three times. The ^32P-labeled tryptic peptides were then resuspended in 5 μl of electrophoresis buffer and spotted onto thin layer cellulose plates. […]

[3] = tested on: HIRcB cells; test: Microinjection of insulin receptor-derived peptides, insulin-stimulated DNA synthesis (BrDU incorporation); type: cell-based, Rat; settings: FIG. 13; for Insulin-stimulated DNA synthesis: high glucose (25 mM); for Insulin-stimulated DNA synthesis / DNA synthesis in insulin-stimulated cells: peptide 10 mM microinjected, 100 ng/ml insulin; for DNA synthesis in insulin-stimulated cells: normal glucose (5 mM)
Description: HIRcB cells were grown to sub-confluence on glass coverslips in D-MEM medium containing normal (5 mM) or high (25 mM) glucose and rendered quiescent by serum deprivation for 24 h. Synthetic cyclo-peptides were derived from the human insulin receptor, containing sequence […] (SEQ ID NO:5) (Serine-1035) and […] (SEQ ID NO:1) (Serine-1270) were synthesized using methods well known in the art. The peptides were dissolved in microinjection buffer containing 5 mM NaPO4 and 100 mM KCl, pH 7.2, to a final concentration of 10 mM. All microinjected reagents contained rabbit IgG (5 mg/ml) to allow the identification […] cells. Samples were microinjected into the cell cytoplasm using an automated microinjection system at a typical needle pressure of about 100 hectopascals resulting in the introduction of 10^5 molecules of IgG.
Approximately 1 h after microinjection, the cells were stimulated with 100 ng/ml insulin and […] BrDU was added. Cells were incubated at 37° C. for an additional 16 h, and then fixed and stained using a monoclonal anti-BrDU antibody. Injected cells were identified with fluorescein isothiocyanate-conjugated donkey anti-rabbit IgG. Nuclear BrDU incorporation was detected with tetramethylrhodamine isothiocyanate-conjugated donkey anti-mouse IgG. The cells were analyzed by fluorescence microscopy.

[4] = tested on: HIRcB cells; test: Insulin-stimulated DNA synthesis (BrDU incorporation) with PKC inhibitors; type: cell-based, Rat; settings: microinjection of the inhibitor peptide, high glucose 25 mM; FIG. 11
Description: HIRcB or ΔCT cells were cultured on acid-washed glass coverslips, grown to semi-confluence, and then starved in serum-free DME with 1 mM glucose. The peptide was dissolved in microinjection buffer containing 5 mM NaPO4 and 100 mM KCl, pH 7.4. The cells were microinjected with the PKC inhibitor peptide using glass capillary needles. Approximately 10 femtoliters of this solution was introduced into each cell. The injection included 1×10^6 molecules of IgG as marker for microinjection.
Two hours after microinjection, cells were incubated with BrDU plus various concentrations of growth factors for 16 h at 37° C. The cells were fixed with acid alcohol (90% ethanol, 5% acetic acid) for 20 min at 22° C., and then incubated with mouse monoclonal anti-BrDU antibody for 1 h at 22° C. […] After coverslips were mounted, the cells were analyzed and photographed with an Axiophot fluorescence microscope (Zeiss). […]
The effects of high glucose upon insulin-induced DNA synthesis were examined by first exposing cells to high glucose for 1 h, and then to insulin and BrDU for an additional 18 h. High glucose decreased DNA synthesis in insulin-stimulated cells by 30%, as measured by BrDU incorporation (FIG. 10).

Compound: CC1CNCCN1S(=O)(=O)c1cccc2cnccc12 (stereo not drawn) [H7]
- Effect on hyperglycemia-induced inhibition of insulin receptor kinase activity [1]: is inhibited

Compound: CCCCCCCCCCCCCC(=O)O[C@@H]1[C@@H](C)[C@@]2(O)[C@@H](C=C(CO)C[C@]3(O)C(=O)C(C)=C[C@@H]23)[C@@H]2C(C)(C)[C@]12OC(C)=O [Phorbol ester]
- Increase of insulin receptor phosphorylation [2]: 1.5 fold

Compound: DDLHPSFPEVS (also: cyclized; listed as Homo sapiens) [Ser-1270]
- Insulin-stimulated DNA synthesis [3]: significantly increased insulin-stimulated DNA synthesis
- Increase in DNA synthesis compared between the two injected peptides ([3]; normal and high glucose, in each instance): greater than in Ser-1035 peptide-injected cells
- DNA synthesis in insulin-stimulated cells [3]: slightly increased DNA synthesis

Compound: KTVNESASLRE (also: cyclized; listed as Homo sapiens) [Ser-1035]
- Insulin-stimulated DNA synthesis [3]: significantly increased insulin-stimulated DNA synthesis
- DNA synthesis in insulin-stimulated cells [3]: slightly increased DNA synthesis

Compound: RFARKGALRQKNV [peptide 19-31]
- Reversal of high glucose inhibition of insulin-stimulated DNA synthesis (BrDU incorporation) [4]: partially reversed inhibition of DNA synthesis

Compound: polymyxin B
- Effect on hyperglycemia-induced inhibition of insulin receptor kinase activity [1]: is inhibited
